Source: ChEMBL document CHEMBL1201861, “Genomics of Drug Sensitity in Cancer screening data, Wellcome Trust Sanger Institute”

Tests used:
Test in all cases: cells
CTB-1 = type: functional, cell-based, Homo sapiens; settings: Homo sapiens, CTB-1
Description: SANGER: Inhibition of human CTB-1 cell growth in a cell viability assay.

DB = type: functional, cell-based, Homo sapiens; settings: Homo sapiens, DB
Description: SANGER: Inhibition of human DB cell growth in a cell viability assay.

EKVX = type: functional, cell-based, Homo sapiens; settings: Homo sapiens, EKVX;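 also: growth inhibition of human EKVX cells, read out with a cell viability assay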
Description: SANGER: Inhibition of human EKVX cell growth in a cell viability assay.

EM-2 = type: functional, cell-based, Homo sapiens; settings: Homo sapiens, EM-2;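 also: growth inhibition of EM-2 cells, read out with a cell viability assay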
Description: SANGER: Inhibition of human EM-2 cell growth in a cell viability assay.

ES4 = type: functional, cell-based, Homo sapiens; settings: Homo sapiens, ES4;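 also: growth inhibition of human ES4 cells, read out by a cell viability assay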
Description: SANGER: Inhibition of human ES4 cell growth in a cell viability assay.

ES5 = type: functional, cell-based, Homo sapiens; settings: Homo sapiens, ES5;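 also: growth inhibition of human ES5 cells, read out by a cell viability assay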
Description: SANGER: Inhibition of human ES5 cell growth in a cell viability assay.

ETK-1 = type: functional, cell-based, Homo sapiens; settings: Homo sapiens, ETK-1;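 also: growth inhibition of human ETK-1 cells, read out with a cell viability assay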
Description: SANGER: Inhibition of human ETK-1 cell growth in a cell viability assay.

EW-3 = type: functional, cell-based, Homo sapiens; settings: Homo sapiens, EW-3;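 also: cell viability assay read-out, IC50 reflects inhibition of growth of the EW-3 cells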
Description: SANGER: Inhibition of human EW-3 cell growth in a cell viability assay.

GI-ME-N = type: functional, cell-based, Homo sapiens; settings: Homo sapiens, GI-ME-N;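 also: growth inhibition of human GI-ME-N cells, read out with a cell viability assay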
Description: SANGER: Inhibition of human GI-ME-N cell growth in a cell viability assay.

GOTO = type: functional, cell-based, Homo sapiens; settings: Homo sapiens, GOTO;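 also: growth inhibition of GOTO cells, read out by a cell viability assay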
Description: SANGER: Inhibition of human GOTO cell growth in a cell viability assay.

HCC2218 = type: functional, cell-based, Homo sapiens; settings: Homo sapiens, HCC2218;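 also: cell viability assay read-out, with IC50 given as the concentration that inhibits growth of the cell line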
Description: SANGER: Inhibition of human HCC2218 cell growth in a cell viability assay.

HL-60 = type: functional, cell-based, Homo sapiens; settings: Homo sapiens, HL-60;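 also: growth inhibition of human HL-60 cells, read out with a cell viability assay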
Description: SANGER: Inhibition of human HL-60 cell growth in a cell viability assay.

HT-144 = type: functional, cell-based, Homo sapiens; settings: Homo sapiens, HT-144
Description: SANGER: Inhibition of human HT-144 cell growth in a cell viability assay.

IST-MEL1 = type: functional, cell-based, Homo sapiens; settings: Homo sapiens, IST-MEL1;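 also: growth inhibition of the cell line, read out with a cell viability assay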
Description: SANGER: Inhibition of human IST-MEL1 cell growth in a cell viability assay.

JVM-2 = type: functional, cell-based, Homo sapiens; settings: Homo sapiens, JVM-2;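 also: growth inhibition of JVM-2 cells determined by a cell viability assay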
Description: SANGER: Inhibition of human JVM-2 cell growth in a cell viability assay.

K562 = type: functional, cell-based, Homo sapiens; settings: Homo sapiens, K562
Description: SANGER: Inhibition of human K-562 cell growth in a cell viability assay.

KALS-1 = type: functional, cell-based, Homo sapiens; settings: Homo sapiens, KALS-1; read-out: IC50;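 also: growth inhibition of KALS-1 cells, determined with a cell viability assay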
Description: SANGER: Inhibition of human KALS-1 cell growth in a cell viability assay.

KGN = type: functional, cell-based, Homo sapiens; settings: Homo sapiens, KGN;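 also: growth inhibition of KGN cells, read out with a cell viability assay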
Description: SANGER: Inhibition of human KGN cell growth in a cell viability assay.

KNS-42 = type: functional, cell-based; settings: Homo sapiens;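 also: growth inhibition of KNS-42 cells, read out with a cell viability assay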
Description: SANGER: Inhibition of human KNS-42 cell growth in a cell viability assay.

KP-N-YS = type: functional, cell-based, Homo sapiens; settings: Homo sapiens, KP-N-YS;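 also: cell viability assay measuring inhibition of cell line growth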
Description: SANGER: Inhibition of human KP-N-YS cell growth in a cell viability assay.

KS-1 = type: functional, cell-based; settings: Homo sapiens;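 also: growth inhibition of KS-1 cells, read out with a cell viability assay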
Description: SANGER: Inhibition of human KS-1 cell growth in a cell viability assay.

KU812 cell line = type: functional, cell-based, Homo sapiens; settings: Homo sapiens, KU812;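 also: growth inhibition of KU812 cells, read out with a cell viability assay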
Description: SANGER: Inhibition of human KU812 cell growth in a cell viability assay.

KURAMOCHI = type: functional, cell-based, Homo sapiens; settings: Homo sapiens, KURAMOCHI;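 also: growth inhibition of KURAMOCHI cells, read out with a cell viability assay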
Description: SANGER: Inhibition of human KURAMOCHI cell growth in a cell viability assay.

LB831-BLC = type: functional, cell-based, Homo sapiens; settings: Homo sapiens, LB831-BLC;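 also: growth inhibition of LB831-BLC cells, read out with a cell viability assay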
Description: SANGER: Inhibition of human LB831-BLC cell growth in a cell viability assay.

LU-139 = type: functional, cell-based, Homo sapiens; settings: Homo sapiens, LU-139
Description: SANGER: Inhibition of human LU-139 cell growth in a cell viability assay.

MC116 = type: functional, cell-based, Homo sapiens; settings: Homo sapiens, MC116;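 also: growth inhibition of MC116 cells, read out with a cell viability assay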
Description: SANGER: Inhibition of human MC116 cell growth in a cell viability assay.

MN-60 = type: functional, cell-based, Homo sapiens; settings: Homo sapiens, MN-60;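 also: growth inhibition of the MN-60 cell line, determined with a cell viability assay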
Description: SANGER: Inhibition of human MN-60 cell growth in a cell viability assay.

MSTO-211H = type: functional, cell-based, Homo sapiens; settings: Homo sapiens, MSTO-211H
Description: SANGER: Inhibition of human MSTO-211H cell growth in a cell viability assay.

MZ1-PC = type: functional, cell-based, Homo sapiens; settings: Homo sapiens, MZ1-PC;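 also: cell viability assay measuring growth inhibition of human MZ1-PC cells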
Description: SANGER: Inhibition of human MZ1-PC cell growth in a cell viability assay.

Mo = type: functional, cell-based, Homo sapiens; settings: Homo sapiens, Mo
Description: SANGER: Inhibition of human Mo-T cell growth in a cell viability assay.

NCI-H1650 = type: functional, cell-based, Homo sapiens; settings: Homo sapiens, NCI-H1650;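 also: growth inhibition of human NCI-H1650 cells measured by a cell viability assay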
Description: SANGER: Inhibition of human NCI-H1650 cell growth in a cell viability assay.

NCI-H2126 = type: functional, cell-based, Homo sapiens; settings: Homo sapiens, NCI-H2126;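 also: growth inhibition of the cancer cell line, determined with a cell viability readout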
Description: SANGER: Inhibition of human NCI-H2126 cell growth in a cell viability assay.

NCI-H446 = type: functional, cell-based, Homo sapiens; settings: Homo sapiens, NCI-H446;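 also: growth inhibition of NCI-H446 cells determined by a cell viability assay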
Description: SANGER: Inhibition of human NCI-H446 cell growth in a cell viability assay.

NOS-1 = type: functional, cell-based, Homo sapiens; settings: Homo sapiens, NOS-1;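 also: growth inhibition of the human NOS-1 cell line, read out with a cell viability assay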
Description: SANGER: Inhibition of human NOS-1 cell growth in a cell viability assay.

ONS-76 = type: functional, cell-based, Homo sapiens; settings: Homo sapiens, ONS-76;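 also: growth inhibition of human ONS-76 cells, read out with a cell viability assay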
Description: SANGER: Inhibition of human ONS-76 cell growth in a cell viability assay.

RCC10RGB = type: functional, cell-based, Homo sapiens; settings: Homo sapiens, RCC10RGB;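 also: growth inhibition of human RCC10RGB cells, read out by a cell viability assay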
Description: SANGER: Inhibition of human RCC10RGB cell growth in a cell viability assay.

RPMI-8866 = type: functional, cell-based, Homo sapiens; settings: Homo sapiens, RPMI-8866
Description: SANGER: Inhibition of human RPMI-8866 cell growth in a cell viability assay.

RXF 393 = type: functional, cell-based, Homo sapiens; settings: Homo sapiens, RXF 393;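 also: growth inhibition of human RXF 393 cells, read out with a cell viability assay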
Description: SANGER: Inhibition of human RXF393 cell growth in a cell viability assay.

SCC-15 = type: functional, cell-based, Homo sapiens; settings: Homo sapiens, SCC-15;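 also: growth inhibition of SCC-15 cells, read out with a cell viability assay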
Description: SANGER: Inhibition of human SCC-15 cell growth in a cell viability assay.

SF-539 = type: functional, cell-based, Homo sapiens; settings: Homo sapiens, SF-539;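 also: Read-out is a cell viability assay, with IC50 reflecting inhibition of cell growth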
Description: SANGER: Inhibition of human SF539 cell growth in a cell viability assay.

SH-4 = type: functional, cell-based; settings: Homo sapiens;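 also: growth inhibition of SH-4 cells, read out with a cell viability assay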
Description: SANGER: Inhibition of human SH-4 cell growth in a cell viability assay.

SK-MEL-1 = type: functional, cell-based, Homo sapiens; settings: Homo sapiens, SK-MEL-1;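 also: growth inhibition of human SK-MEL-1 cells, read out by a cell viability assay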
Description: SANGER: Inhibition of human SK-MEL-1 cell growth in a cell viability assay.

SW982 = type: functional, cell-based; settings: Homo sapiens;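 also: growth inhibition of SW982 cells, read out with a cell viability assay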
Description: SANGER: Inhibition of human SW982 cell growth in a cell viability assay.

697 = type: functional, cell-based, Homo sapiens; settings: Homo sapiens
Description: SANGER: Inhibition of human 697 cell growth in a cell viability assay.

BB49-HNC = type: functional, cell-based, Homo sapiens; settings: Homo sapiens, BB49-HNC;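 also: cell viability assay read-out, reported as inhibition of BB49-HNC cell growth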
Description: SANGER: Inhibition of human BB49-HNC cell growth in a cell viability assay.

TE-11 = type: functional, cell-based; settings: Homo sapiens;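 also: growth inhibition of human TE-11 cells, read out by a cell viability assay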
Description: SANGER: Inhibition of human TE-11 cell growth in a cell viability assay.

TGBC1TKB = type: functional, cell-based, Homo sapiens; settings: Homo sapiens, TGBC1TKB;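 also: growth inhibition of TGBC1TKB cells, read out by a cell viability assay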
Description: SANGER: Inhibition of human TGBC1TKB cell growth in a cell viability assay.

TGBC24TKB = type: functional, cell-based; settings: Homo sapiens;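 also: growth inhibition of human TGBC24TKB cells, read out with a cell viability assay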
Description: SANGER: Inhibition of human TGBC24TKB cell growth in a cell viability assay.

VA-ES-BJ = type: functional, cell-based, Homo sapiens; settings: Homo sapiens, VA-ES-BJ;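 also: growth inhibition of the VA-ES-BJ cell line, read out by a cell viability assay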
Description: SANGER: Inhibition of human VA-ES-BJ cell growth in a cell viability assay.

no-10 = type: functional, cell-based, Homo sapiens; settings: Homo sapiens;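 also: growth inhibition of no-10 cells, read out with a cell viability assay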
Description: SANGER: Inhibition of human no-10 cell growth in a cell viability assay.

NC(=O)Nc1cc(-c2cccc(F)c2)sc1C(=O)N[C@H]1CCCNC1 [AZD-7762]
IC50 (CTB-1): 0.133 µM | IC50 (DB): 1.7 µM | IC50 (EKVX): > 2 µM | IC50 (EM-2): 0.099 µM | IC50 (ES4): 0.0325 µM | IC50 (ES5): 0.135 µM | IC50 (ETK-1): 0.637 µM | IC50 (EW-3): 0.736 µM | IC50 (GI-ME-N): 0.455 µM | IC50 (GOTO): 0.0312 µM | IC50 (HCC2218): > 2 µM | IC50 (HL-60): 0.774 µM | IC50 (HT-144): 0.338 µM | IC50 (IST-MEL1): 0.226 µM | IC50 (JVM-2): > 2 µM | IC50 (K562): > 2 µM | IC50 (KALS-1): 0.326 µM | IC50 (KGN): 1.23 µM | IC50 (KNS-42): > 2 µM | IC50 (KP-N-YS): 0.584 µM | IC50 (KS-1): 0.466 µM | IC50 (KU812 cell line): 0.168 µM | IC50 (KURAMOCHI): > 2 µM | IC50 (LB831-BLC): > 2 µM | IC50 (LU-139): > 2 µM | IC50 (MC116): 0.257 µM | IC50 (MN-60): 0.721 µM | IC50 (MSTO-211H): 0.299 µM | IC50 (MZ1-PC): > 2 µM | IC50 (Mo): > 2 µM | IC50 (NCI-H1650): 1.04 µM | IC50 (NCI-H2126): > 2 µM | IC50 (NCI-H446): 0.748 µM | IC50 (NOS-1): 0.15 µM | IC50 (ONS-76): 0.062 µM | IC50 (RCC10RGB): > 2 µM | IC50 (RPMI-8866): 0.139 µM | IC50 (RXF 393): 0.29 µM | IC50 (SCC-15): > 2 µM | IC50 (SF-539): 0.137 µM | IC50 (SH-4): > 2 µM | IC50 (SK-MEL-1): > 2 µM | IC50 (SW982): 0.784 µM | IC50 697: 0.111 µM | IC50 (BB49-HNC): 1.4 µM | IC50 (TE-11): 0.453 µM | IC50 (TGBC1TKB): 1.92 µM | IC50 (TGBC24TKB): 0.165 µM | IC50 (VA-ES-BJ): 0.226 µM | IC50 (no-10): > 2 µM

NC(=O)c1ccc(N(C(N)=O)c2c(F)cccc2F)nc1-c1ccc(F)cc1F [VX-702]
IC50 (CTB-1): > 2 µM | IC50 (DB): > 2 µM | IC50 (EKVX): > 2 µM | IC50 (EM-2): > 2 µM | IC50 (ES4): > 2 µM | IC50 (ES5): > 2 µM | IC50 (ETK-1): > 2 µM | IC50 (EW-3): 0.666 µM | IC50 (GI-ME-N): > 2 µM | IC50 (GOTO): > 2 µM | IC50 (HCC2218): 0.497 µM | IC50 (HL-60): > 2 µM | IC50 (HT-144): > 2 µM | IC50 (IST-MEL1): > 2 µM | IC50 (JVM-2): 0.083 µM | IC50 (K562): > 2 µM | IC50 (KALS-1): > 2 µM | IC50 (KGN): > 2 µM | IC50 (KNS-42): > 2 µM | IC50 (KP-N-YS): > 2 µM | IC50 (KS-1): > 2 µM | IC50 (KU812 cell line): 0.125 µM | IC50 (KURAMOCHI): > 2 µM | IC50 (LB831-BLC): > 2 µM | IC50 (LU-139): 0.194 µM | IC50 (MC116): > 2 µM | IC50 (MN-60): > 2 µM | IC50 (MSTO-211H): > 2 µM | IC50 (MZ1-PC): > 2 µM | IC50 (Mo): > 2 µM | IC50 (NCI-H1650): > 2 µM | IC50 (NCI-H2126): > 2 µM | IC50 (NCI-H446): > 2 µM | IC50 (NOS-1): > 2 µM | IC50 (ONS-76): > 2 µM | IC50 (RCC10RGB): > 2 µM | IC50 (RPMI-8866): > 2 µM | IC50 (RXF 393): > 2 µM | IC50 (SCC-15): > 2 µM | IC50 (SF-539): > 2 µM | IC50 (SH-4): > 2 µM | IC50 (SK-MEL-1): > 2 µM | IC50 (SW982): > 2 µM | IC50 697: > 2 µM | IC50 (BB49-HNC): > 2 µM | IC50 (TE-11): > 2 µM | IC50 (TGBC1TKB): > 2 µM | IC50 (TGBC24TKB): > 2 µM | IC50 (VA-ES-BJ): > 2 µM | IC50 (no-10): > 2 µM

O=C1NC(=O)c2c1c(-c1ccccc1Cl)cc1[nH]c3ccc(O)cc3c21
IC50 (CTB-1): 0.242 µM | IC50 (DB): 1.3 µM | IC50 (EM-2): 1.33 µM | IC50 (ES4): 0.924 µM | IC50 (ES5): > 2 µM | IC50 (ETK-1): > 2 µM | IC50 (EW-3): 0.947 µM | IC50 (GI-ME-N): 1.53 µM | IC50 (GOTO): 0.666 µM | IC50 (HCC2218): > 2 µM | IC50 (HL-60): > 2 µM | IC50 (HT-144): > 2 µM | IC50 (IST-MEL1): > 2 µM | IC50 (JVM-2): > 2 µM | IC50 (K562): > 2 µM | IC50 (KALS-1): 0.834 µM | IC50 (KGN): 1.68 µM | IC50 (KNS-42): > 2 µM | IC50 (KP-N-YS): > 2 µM | IC50 (KS-1): > 2 µM | IC50 (KU812 cell line): > 2 µM | IC50 (KURAMOCHI): > 2 µM | IC50 (LB831-BLC): > 2 µM | IC50 (LU-139): > 2 µM | IC50 (MC116): > 2 µM | IC50 (MN-60): 1.2 µM | IC50 (MSTO-211H): > 2 µM | IC50 (MZ1-PC): > 2 µM | IC50 (Mo): > 2 µM | IC50 (NCI-H1650): > 2 µM | IC50 (NCI-H2126): > 2 µM | IC50 (NCI-H446): > 2 µM | IC50 (NOS-1): > 2 µM | IC50 (ONS-76): > 2 µM | IC50 (RCC10RGB): > 2 µM | IC50 (RPMI-8866): > 2 µM | IC50 (RXF 393): > 2 µM | IC50 (SCC-15): > 2 µM | IC50 (SF-539): 1.25 µM | IC50 (SH-4): 1.65 µM | IC50 (SK-MEL-1): > 2 µM | IC50 (SW982): > 2 µM | IC50 697: 0.431 µM | IC50 (BB49-HNC): > 2 µM | IC50 (TE-11): > 2 µM | IC50 (TGBC1TKB): > 2 µM | IC50 (TGBC24TKB): > 2 µM | IC50 (VA-ES-BJ): 1.5 µM | IC50 (no-10): > 2 µM
